Test results from patent publication EP0955032A1, “COSMETIC” (Technoble Co., Ltd., priority 1996, dated 1997).
Converted amounts (≈) assume the structure as drawn. Values belong to the molecule of their own block, whether it stands above or below them.

Columns and labels:
[1] = tested on: B16 mouse melanoma cells; experiment: Experiment 1: gross observation of cell pellets after culture with sample; type: cell-based; details: 5mM sample with 50mM c-AMP, three days; compared with blank culture
Method: (§1) Cultured B16 mouse melanoma cells (6x10^4 cells) were inoculated to Eagle's minimum essential medium (MEM) containing 5% (v/v) of fetal bovine serum (FBS) and pre-incubated for one day under 5% CO2 at 37° C before 4 days incubation with 0.1% D-glucosamine under the same conditions. Then the culture medium was replaced with one that contained 50mM of adenosine 3',5'-cyclic phosphate (c-AMP) and 5mM of 2,5-acetoxy benzoic acid as the sample, and incubated under 5% CO2 for three days at 37° C.
(§2) For comparison, a separate series of incubation was conducted under the same conditions using the same culture medium without 2,5-diacetoxy benzoic acid, and served as a blank.
After the incubation, the cells were isolated from the medium by centrifugation and made into a pellet.

[2] = tested on: B16 mouse melanoma cells; experiment: Experiments 2 and 5: MTT test value (cell activity); type: cell-based; details: for MTT value: Fig. 2, 2.5mM or 5mM DABA, 2.5mM DAPECSAM, two days, compared with DHBA cultures and blank
Method: (§3) Cultured B16 mouse melanoma cells were inoculated to a 96-well microplate (Corning Ltd.) at the rate of 8000 cells /well and pre-incubated in the Eagle's MEM containing 5% (v/v) FBS for one day under 5% CO2 at 37° C. After the pre-incubation, the culture medium was replaced with the Eagle's MEM containing 5% FBS, also containing 2.5mM or 5mM 2,5-diacetoxy benzoic acid or 2.5mM of 2-(2',5'-diacetoxy-benzoiloxy) benzoic acid, whereupon incubation was continued for two days under 5% CO2 at 37° C.
(§4) After the incubation, the medium was removed and a surfactant (Triton X-100) was mixed with the cells. Then 5mM of L-dopa or 0.2% of 3-(4,5-dimethylthiazol-2-yl)-2,5-diphenyltetrazorium bromide (MTT) was mixed for tyrosinase reaction at 37° C. Then the Dopa value and MTT test value were measured at the wavelength of 490nm and 570-630nm respectively using a microplate reader (Model 450, Bio Rad Ltd.).
(§5) For comparison, two series of culture with 2.5mM or 5mM of 2.5-dihydroxy benzoic acid instead of the compounds used in the present invention, as well as a culture without compound were prepared to serve as the positive controls and blank respectively.
(§6) It is believed that the higher the Dopa value, the higher the intracellular tyrosinase activity, while the lower the MTT test value, the lower the cultured B16 mouse melanoma cell activity.
(§7) The compound expressed by Formula A was used as an example of the 2,5-dihydroxy benzoic acid derivatives to evaluate its inhibitory effect on intracellular tyrosinase activity in accordance with the same protocol as followed in Experiment 2. [drawing 23]
(§8) However, the concentration was set to 2.5mM and the compound was dissolved in dimethyl sulfoxide before being applied to the culture medium.
(§9) The medium containing dimethyl sulfoxide was used for the blank culture. The results are shown in the graphs in Fig. 4 (Dopa levels) and Fig. 5 (MTT levels).

[3] = tested on: T3-tyrosinase; experiment: Experiment 1: SDS electrophoresis of intracellular tyrosinase isozymes (T3); type: cell-based, mouse; details: 5mM sample, three days; compared with blank culture
Method: as §1, §2
(§10) Then the culture samples were analyzed by SDS electrophoresis for detection of B16 mouse melanoma intracellular tyrosinase isozymes. The conditions of the electrophoresis were: gel = polyacrylamide gel (T=7.5% w/v, C=3% w/v); buffer solution = 0.025 M tris- 0.192 M glycine buffer solution (pH = 8.3) containing 0.1% (v/v) sodium dodecyl sulfate (SDS); amount of application = 20uL per well [the mixing ratio of the buffer A (38ml of 0.125M tris-HCl buffer, 10ml of glycerin, 2g of SDS and 3mg of bromphenol blue)/culture sample = 1/1]. The concentration of the sample was adjusted to 1600ug/ml.

[4] = tested on: cyclooxygenase; experiment: Experiment 3: inhibition of cyclooxygenase activity (oxygen consumption); type: biochemical; details: Fig. 3; 1.00ml of 5mM or 10mM solution; compared with blank (purified water)
Method: A mixture solution was prepared using 3.57ml of 0.2M tris-HCl buffer solution containing 20mM of L-tryptophan, 0.03ml of 40mM hemoglobin solution, 0.20ml of 400unit/ml cyclooxygenase solution, and 1.00ml of 5mM or 10mM 2.5-diacetoxy benzoic acid solution.
For comparison, a mixture using 1.00ml of purified water instead of 1.00ml of 2,5-diacetoxy benzoic acid was prepared to serve as a blank.
The mixture was incubated for five minutes at 37° C, and then 0.20ml of 0.2M tris-HCl buffer solution containing 2mM of arachidonic acid was added to the mixture for cyclooxygenase reaction. Immediately after the reaction started, the amount of dissolved oxygen in the reaction solution was measured using a biological oxygen monitor (YSI Model 5300, Meridian Instruments Far East, Ltd.). On the basis of the measurement of the dissolved oxygen level, the change in oxygen consumption attendant on the progress of the reaction time was determined.
It is believed that the less the oxygen consumption, the more the cyclooxygenase was inhibited.

[5] = tested on: T1-tyrosinase; experiment: Experiment 1: SDS electrophoresis of intracellular tyrosinase isozymes (T1); type: cell-based, mouse; details: 5mM sample, three days; compared with blank culture
Method: as §1, §2, §10

[6] = target: T1, intracellular tyrosinase (Mus musculus, UniProt P11344); experiment: Experiments 2 and 5: inhibition of intracellular tyrosinase activity (Dopa value); type: cell-based; details: for Dopa value: Fig. 1, 2.5mM or 5mM DABA, 2.5mM DAPECSAM, two days, compared with blank and with DHBA at the same concentration
T1 construct: endogenous in cells; host or cells: B16 mouse melanoma cells
T1 sequence (P11344 19-533): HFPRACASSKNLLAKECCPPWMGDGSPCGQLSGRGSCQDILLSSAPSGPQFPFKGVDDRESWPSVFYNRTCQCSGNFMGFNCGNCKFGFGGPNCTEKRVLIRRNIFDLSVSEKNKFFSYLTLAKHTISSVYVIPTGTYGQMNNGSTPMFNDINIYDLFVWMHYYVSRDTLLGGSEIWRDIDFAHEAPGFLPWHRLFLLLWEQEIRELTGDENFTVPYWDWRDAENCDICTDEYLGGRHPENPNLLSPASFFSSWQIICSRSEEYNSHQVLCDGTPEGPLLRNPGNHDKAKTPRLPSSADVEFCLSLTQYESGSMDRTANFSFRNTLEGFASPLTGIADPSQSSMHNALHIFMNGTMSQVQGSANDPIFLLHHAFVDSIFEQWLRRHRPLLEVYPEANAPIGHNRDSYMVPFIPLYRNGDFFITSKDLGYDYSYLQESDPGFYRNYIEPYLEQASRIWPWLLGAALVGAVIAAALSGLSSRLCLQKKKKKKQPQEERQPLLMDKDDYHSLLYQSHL
Method: as §3, §4, §5, §6, §7, §8, §9

[7] = in vitro; type: cell-based; details: rabbit, sirc-c cells
Method: Cultured rabbit cornea cells (SIRC-C) were inoculated to a 96-well microplate (Corning Ltd.) at the rate of 5000 cells/well, and pre-incubated with Eagle's MEM containing 5% (v/v) FBS for one day under 5% CO2 at 37° C. Then 0.2ml of Eagle's MEM containing 0.05% neutral red was added to the culture medium and incubation was continued for two days under the same conditions. Furthermore, 2,5-diacetoxy benzoic acid was added to the culture medium at the concentrations of 0.025% (w/v) (10.5mM), 0.05% (w/v) (21mM), 0.1% (w/v) (42mM) or 0.2% (w/v) (84mM) and incubated again for two days under 5% CO 2 at 37° C.
For comparison, cultures with 30ug/ml, 60ug/ml or 90ug/ml of sodium dodecyl sulfate instead of 2,5-diacetoxy benzoic acid and without any compound were prepared and served as the positive control and the blank respectively.
The cultures were tested by analyzing SIRC-C neutral red intake, which is one of the alternative methods of eye-irritation test, and the midpoint cytotoxicity (NR50) value was derived from the neutral red intake rate to evaluate the potential irritation effect.
It is believed that, since the neutral red intake decreases with the increase in the irritation of the compound to SIRC-C, the higher the NR50 concentration of the sample solution, the lower the irritation to the cells.

Compound: CC(=O)Oc1ccc(OC(C)=O)c(C(=O)O)c1 [DABA, 2,5-diacetoxy benzoic acid]
gross observation of pellets [1]: significantly whitened | MTT value [2]: not much lower | T3-tyrosinase band [3]: disappeared | increase in oxygen consumption attendant upon progress of reaction time [4]: much lower | band of T1-tyrosinase [5]: significantly reduced | Dopa value [6]: much lower than that of the blank | inhibitory effect on intracellular tyrosinase compared with kojic acid and albutin ([6]; within a concentration range that did not inhibit cell activity): the same or even higher | CC50 at 48 h [7]: 1000 to 2000 µg/mL (≈ 4.2 to 8.4 mM)

Compound: COC(=O)c1ccccc1OC(=O)c1cc(OC(C)=O)ccc1OC(C)=O [DAPECSAM, 2-(2'5'-diacetoxy-benzoiloxy) benzoic acid methyl ester]
MTT value [2]: not much lower | Dopa value [6]: much lower than that of the blank

cell activity (MTT levels) ([2]; Experiment 5, Fig. 5, 2.5mM, dissolved in dimethyl sulfoxide, blank with dimethyl sulfoxide): not the cell activity | intracellular tyrosinase activity (Dopa levels) ([6]; Experiment 5, Fig. 4, 2.5mM, dissolved in dimethyl sulfoxide, blank with dimethyl sulfoxide): significantly inhibited
Compound: COC(=O)c1ccccc1OC(=O)c1cc(OC(C)=O)ccc1OC(C)=O [Formula A]

Compound: CCCCCCCCCCCCOS(=O)(=O)[O-].[Na+] [SDS, sodium dodecyl sulfate, reference compound]
CC50 at 48 h [7]: ~60 µg/mL
